Legend:
MRC5 [1] = assay: Cytotoxic dose for anti-HCMV activity against AD-169 strain in MRC-5 cells; format: functional; conditions: Homo sapiens, read-out: CD50 (the source's name)
[2] = Therapeutic index for anti-HCMV activity against AD-169 strain in MRC-5 cells; format: cell-based; conditions: human, mrc5
MRC5 [3] = assay: Inhibitory concentration for anti-HCMV activity against AD-169 strain in MRC-5 cells; format: functional, cell-based; conditions: Homo sapiens
[4] = Therapeutic index for anti-HIV activity against HIV-IIIB in CEM-SS cells; format: cell-based

Structure (SMILES) | CC50 (MRC5 [1]) | TI [2] | IC50 (MRC5 [3]) | TI [4]
Nc1nc(O)c2ncn(COC(CO)CO)c2n1 [GANCICLOVIR] | > 125 µM | > 20 | 6.3 µM | 
CCN(CC)C(=S)[S][Na] [DITIOCARB SODIUM] |  |  |  | > 67
